In patent US20210163471A1, “PROGRANULIN MODULATORS AND METHODS OF USING THE SAME” (ARKUDA THERAPEUTICS, priority 2017, published 2021) one finds EC50 data, which are given here for 41 molecules.

Where two headings read alike, the source gives them in different places. A value given as a limit tells only on which side of the number the result lay.

For this assay, the system named is BV-2 (mouse microglia) cells. In words: progranulin secretion from BV-2 cells, mouse progranulin ELISA of conditioned media. Type of assay: cell-based. The settings on record: BV-2 cells, 16 hours incubation, 8-point curves starting at 10 μM. Here is the method:
BV-2 cells are split the day before plating into a 96 well plate format at approximately 80%. Cells should be plated the day before and allowed for 1 hour attachment period and for 16 hour incubation. […] Standard ELISA kits to measure PGRN are available from vendors such as Adipogen, R&D, and Biovendor.
Compound potency was determined by measuring progranulin secretion from BV-2 (mouse microglia) cells. BV-2 cells were grown in RPMI with 2 mM L-glutamine supplemented with 10% fetal bovine serum. On the day of the assay, cells were plated in 96-well plates at a density of 30,000 cells/well in RPMI (Roswell Park Memorial Institute media)/L-glutamine supplemented with 2% Fetal clone serum II (plating media) and left to adhere for 1 hour. Following attachment to the plate, media was replaced with treatment (8-point curves in half-log dilutions starting at 10 μM) in plating media and incubated for 16 hours. Secreted progranulin was measured from a 1:10 dilution of the conditioned media using the R&D Systems mouse progranulin ELISA kit (cat #DY2557) and following the manufacturer's instructions.

Setting [1] is: Mus musculus, assay run v1, read-out: PRGN v1 (EC50, progranulin secretion).
[2] abbreviates: assay run v1, read-out: PRGN v1 (EC50, progranulin secretion).
Setting [3] is: Mus musculus, assay run v2 (same protocol, different assay), read-out: PRGN v2 (EC50, progranulin secretion).
The mark [4] stands for this setting: assay run v2 (same protocol, different assay), read-out: PRGN v2 (EC50, progranulin secretion).

The EC50 is the concentration at which the effect is half-maximal. On to `CS(=O)(=O)c1ccc([C@H]2c3ccccc3CCN2C(=O)O[C@@H]2CN3CCC2CC3)cc1` [Compound 1001, (S)—((S)-quinuclidin-3-yl)-1-(4-(methylsulfonyl)phenyl)-3,4-dihydroisoquinoline-2(1H)-carboxylate], for which the EC50 under setting [1] is greater than 10 µM.

As for `O=C(O[C@@H]1CN2CCC1CC2)N1CCc2ccccc2[C@@H]1c1ccnc(O)c1` [Compound 1002], the EC50 under setting [2] is greater than 10 µM.

As for `O=C(O[C@@H]1CN2CCC1CC2)N1CCc2ccccc2[C@H]1c1ccnc(O)c1` [Compound 1003], the EC50 under setting [2] was greater than 10 µM.

On to `O=C(O[C@@H]1CN2CCC1CC2)N1CCc2ccccc2[C@@H]1c1ccc(F)cc1` [Compound 1004, (S)—((S)-quinuclidin-3-yl) 1-(4-fluorophenyl)-3,4-dihydroisoquinoline-2(1H)-carboxylate], for which the EC50 by setting is: under setting [1], 0.36 µM; under setting [3], 0.43 µM.

In the case of `O=C(O[C@@H]1CN2CCC1CC2)N1CCc2ccccc2[C@H]1c1ccc(F)cc1` [Compound 1005], the EC50 under setting [1] is greater than 7 µM.

As to `O=C(O[C@@H]1CN2CCC1CC2)N1CCc2ccccc2[C@@H]1c1ccc(-n2ccnc2)cc1` [Compound 1006], under setting [1], the EC50 was determined as 5.7 µM.

Turning to `O=C(O[C@@H]1CN2CCC1CC2)N1CCc2ccccc2[C@H]1c1ccc(-n2ccnc2)cc1` [Compound 1007], the EC50 under setting [1] is greater than 10 µM.

On to `COc1cc([C@H]2c3ccccc3CCN2C(=O)O[C@@H]2CN3CCC2CC3)ccn1` [Compound 1008], for which the EC50 under setting [2] was greater than 10 µM.

`COc1cc([C@@H]2c3ccccc3CCN2C(=O)O[C@@H]2CN3CCC2CC3)ccn1` [Compound 1009]: the EC50 under setting [2] is greater than 10 µM.

For the molecule `O=C(O[C@@H]1CN2CCC1CC2)N1CCc2ccccc2[C@@H]1c1ccc(F)c(F)c1` [Compound 1010], the EC50 under setting [1] was determined as 0.92 µM and the EC50 under setting [3] was found to be 2.03 µM.

Regarding `O=C(O[C@@H]1CN2CCC1CC2)N1CCc2ccccc2[C@H]1c1ccc(F)c(F)c1` [Compound 1011], the EC50 is, setting by setting: under setting [1], 7.14 µM; under setting [3], 8.74 µM.

For `O=C(O[C@@H]1CN2CCC1CC2)N1CCc2ccccc2[C@@H]1c1ccc(F)cc1F` [Compound 1012], the EC50 by setting is: under setting [2], 0.44 µM; under setting [4], 0.25 µM.

`O=C(O[C@@H]1CN2CCC1CC2)N1CCc2ccccc2[C@H]1c1ccc(F)cc1F` [Compound 1013]: the EC50 under setting [2] is greater than 10 µM and the EC50 under setting [4] is 1.75 µM.

In the case of `O=C(O[C@@H]1CN2CCC1CC2)N1CCc2ccccc2[C@H]1c1cccc(F)c1F` [Compound 1014], the EC50 under setting [2] is greater than 10 µM and the EC50 under setting [4] worked out at 4.3 µM.

As for `O=C(O[C@@H]1CN2CCC1CC2)N1CCc2ccccc2[C@@H]1c1cccc(F)c1F` [Compound 1015], the EC50 worked out at 0.33 µM under setting [2] and 1.11 µM under setting [4].

As to `O=C1CCCN1c1ccc([C@H]2c3ccccc3CCN2C(=O)O[C@@H]2CN3CCC2CC3)cc1` [Compound 1016], the EC50 is, setting by setting: under setting [1], greater than 10 µM; under setting [3], greater than 10 µM.

For `O=C1CCCN1c1ccc([C@@H]2c3ccccc3CCN2C(=O)O[C@@H]2CN3CCC2CC3)cc1` [Compound 1017], the EC50 is greater than 10 µM under setting [1] and greater than 10 µM under setting [3].

With `O=C(O[C@@H]1CN2CCC1CC2)N1CCc2ccccc2[C@@H]1c1ccc(-n2cncn2)cc1` [Compound 1018], the EC50 was greater than 10 µM under setting [1] and greater than 10 µM under setting [3].

Turning to `O=C(O[C@@H]1CN2CCC1CC2)N1CCc2ccccc2[C@H]1c1ccc(-n2cncn2)cc1` [Compound 1019], the EC50 under setting [1] was greater than 10 µM and the EC50 under setting [3] is greater than 10 µM.

With `O=C(O[C@@H]1CN2CCC1CC2)N1CCc2ccccc2[C@@H]1c1cccc(F)c1` [Compound 1020], the EC50 reads like this: under setting [2], 1.37 µM; under setting [4], 3.55 µM.

`O=C(O[C@@H]1CN2CCC1CC2)N1CCc2ccccc2[C@H]1c1cccc(F)c1` [Compound 1021]: the EC50 is, setting by setting: under setting [2], greater than 10 µM; under setting [4], 1.03 µM.

As for `O=C(O[C@@H]1CN2CCC1CC2)N1CCc2ccccc2[C@@H]1c1ccc(OC2CC2)cc1` [Compound 1022], the EC50 is, setting by setting: under setting [1], greater than 10 µM; under setting [3], greater than 10 µM.

Consider `O=C(O[C@@H]1CN2CCC1CC2)N1CCc2ccccc2[C@H]1c1ccc(OC2CC2)cc1` [Compound 1023], for which the EC50 under setting [1] is 9.53 µM and the EC50 under setting [3] turned out to be 6.33 µM.

For the molecule `COc1ccc([C@H]2c3ccccc3CCN2C(=O)O[C@@H]2CN3CCC2CC3)cc1` [Compound 1024], the EC50 under setting [2] turned out to be 2.87 µM and the EC50 under setting [4] is 2.91 µM.

Take `COc1ccc([C@@H]2c3ccccc3CCN2C(=O)O[C@@H]2CN3CCC2CC3)cc1` [Compound 1025]: the EC50 reads like this: under setting [2], 4.41 µM; under setting [4], greater than 10 µM.

`O=C1CCC([C@H]2c3ccccc3CCN2C(=O)O[C@@H]2CN3CCC2CC3)CN1` (stereo partly shown) [Compound 1026]: the EC50 runs as follows: under setting [2], greater than 10 µM; under setting [4], greater than 10 µM.

For the molecule `O=C1CCC([C@@H]2c3ccccc3CCN2C(=O)O[C@@H]2CN3CCC2CC3)CN1` (stereo partly shown) [Compound 1027], the EC50 is, setting by setting: under setting [2], 9.53 µM; under setting [4], greater than 10 µM.

For the molecule `COc1ccc([C@H]2c3ccccc3CCN2C(=O)O[C@@H]2CN3CCC2CC3)cn1` [Compound 1028], the EC50 by setting is: under setting [2], greater than 10 µM; under setting [4], greater than 10 µM.

For `COc1ccc([C@@H]2c3ccccc3CCN2C(=O)O[C@@H]2CN3CCC2CC3)cn1` [Compound 1029], the EC50 reads like this: under setting [2], greater than 10 µM; under setting [4], greater than 10 µM.

For the molecule `O=C(O[C@@H]1CN2CCC1CC2)N1CCc2ccccc2[C@@H]1CS(=O)(=O)c1ccccc1` [Compound 1030], the EC50 under setting [1] was greater than 10 µM and the EC50 under setting [3] was greater than 10 µM.

`O=C(O[C@@H]1CN2CCC1CC2)N1CCc2ccccc2[C@H]1CS(=O)(=O)c1ccccc1` [Compound 1031]: the EC50 under setting [1] is greater than 10 µM and the EC50 under setting [3] is greater than 10 µM.

`O=C(O[C@@H]1CN2CCC1CC2)N1CCc2ccccc2[C@@H]1c1ccc2ncsc2c1` [Compound 1032]: the EC50 reads like this: under setting [2], greater than 10 µM; under setting [4], 7.88 µM.

Turning to `O=C(O[C@@H]1CN2CCC1CC2)N1CCc2ccccc2[C@H]1c1ccc2ncsc2c1` [Compound 1033], the EC50 under setting [2] is greater than 10 µM and the EC50 under setting [4] is greater than 10 µM.

With `O=C(O[C@@H]1CN2CCC1CC2)N1CCc2ccccc2[C@@H]1c1ccc2scnc2c1` [Compound 1034], the EC50 was greater than 10 µM under setting [2] and 5.77 µM under setting [4].

As for `O=C(O[C@@H]1CN2CCC1CC2)N1CCc2ccccc2[C@H]1c1ccc2scnc2c1` [Compound 1035], the EC50 under setting [2] was greater than 10 µM and the EC50 under setting [4] is greater than 10 µM.

For `O=C(O[C@@H]1CN2CCC1CC2)N1CCc2ccccc2[C@@H]1c1cc2ccccc2s1` [Compound 1036], the EC50 under setting [2] was greater than 3.16 µM and the EC50 under setting [4] is greater than 10 µM.

Take `O=C(O[C@@H]1CN2CCC1CC2)N1CCc2ccccc2[C@H]1c1cc2ccccc2s1` [Compound 1037]: the EC50 was greater than 3.16 µM under setting [2] and greater than 10 µM under setting [4].

Regarding `COc1ccc([C@H]2c3ccccc3CCN2C(=O)O[C@@H]2CN3CCC2CC3)cc1F` [Compound 1038], the EC50 under setting [4] is greater than 10 µM.

For `COc1ccc([C@@H]2c3ccccc3CCN2C(=O)O[C@@H]2CN3CCC2CC3)cc1F` [Compound 1039], under setting [4], the EC50 is greater than 10 µM.

On to `O=C(O[C@@H]1CN2CCC1CC2)N1CCc2ccccc2[C@@H]1c1cc(F)cc(F)c1` [Compound 1040], for which the EC50 under setting [4] was greater than 10 µM.

As for `O=C(O[C@@H]1CN2CCC1CC2)N1CCc2ccccc2[C@H]1c1cc(F)cc(F)c1` [Compound 1041], the EC50 under setting [4] was greater than 10 µM.
